Source: ChEMBL document CHEMBL5291721, “A preclinical secondary pharmacology resource illuminates target-adverse drug reaction associations of marketed drugs” (Nat Commun, 2023)

Key:
[1] = biological target: Sodium-dependent dopamine transporter (Homo sapiens, UniProt Q01959)
D(1A) dopamine receptor = D(1A) dopamine receptor (Homo sapiens, UniProt P21728); assay type: functional, cell-based
[2] = biological target: T1, 5-hydroxytryptamine receptor 1A (Homo sapiens, UniProt P08908); assay type: functional, cell-based
T1 sequence (P08908 whole entry): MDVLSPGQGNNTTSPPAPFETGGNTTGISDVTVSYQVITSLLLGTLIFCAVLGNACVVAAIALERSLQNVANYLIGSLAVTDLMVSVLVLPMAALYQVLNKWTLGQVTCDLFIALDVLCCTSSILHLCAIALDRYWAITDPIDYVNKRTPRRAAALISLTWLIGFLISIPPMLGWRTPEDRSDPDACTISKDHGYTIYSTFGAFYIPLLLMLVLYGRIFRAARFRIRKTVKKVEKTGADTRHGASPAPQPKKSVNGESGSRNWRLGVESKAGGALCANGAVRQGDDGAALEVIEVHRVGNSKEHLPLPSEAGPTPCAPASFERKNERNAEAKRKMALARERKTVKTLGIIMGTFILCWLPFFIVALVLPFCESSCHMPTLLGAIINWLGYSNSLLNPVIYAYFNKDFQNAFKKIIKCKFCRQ

Histamine H2 receptor = Histamine H2 receptor (Homo sapiens, UniProt P25021); assay type: functional, cell-based
[3] = biological target: Glutamate receptor ionotropic, NMDA 1 (Rattus norvegicus, UniProt P35439)
[4] = biological target: T2, Alpha-1A adrenergic receptor (Homo sapiens, UniProt P35348); assay type: functional, cell-based
T2 sequence (P35348 whole entry): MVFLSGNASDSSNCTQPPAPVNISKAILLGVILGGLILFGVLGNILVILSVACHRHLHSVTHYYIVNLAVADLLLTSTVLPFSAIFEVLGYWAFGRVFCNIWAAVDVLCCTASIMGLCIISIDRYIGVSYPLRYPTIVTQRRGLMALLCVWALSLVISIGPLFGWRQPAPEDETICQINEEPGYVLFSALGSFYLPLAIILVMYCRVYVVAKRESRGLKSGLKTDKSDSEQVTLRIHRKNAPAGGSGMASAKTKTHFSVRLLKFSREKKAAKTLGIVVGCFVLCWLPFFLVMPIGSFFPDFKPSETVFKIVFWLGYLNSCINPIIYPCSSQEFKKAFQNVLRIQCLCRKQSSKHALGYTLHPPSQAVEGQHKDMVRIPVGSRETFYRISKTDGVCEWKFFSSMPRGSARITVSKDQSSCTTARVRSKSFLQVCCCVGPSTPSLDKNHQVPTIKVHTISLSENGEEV

[5] = biological target: 5-hydroxytryptamine receptor 2B (Homo sapiens, UniProt P41595); assay type: functional, cell-based
[6] = biological target: T3, 5-hydroxytryptamine receptor 2C (Homo sapiens, UniProt P28335)
T3 sequence (P28335 whole entry): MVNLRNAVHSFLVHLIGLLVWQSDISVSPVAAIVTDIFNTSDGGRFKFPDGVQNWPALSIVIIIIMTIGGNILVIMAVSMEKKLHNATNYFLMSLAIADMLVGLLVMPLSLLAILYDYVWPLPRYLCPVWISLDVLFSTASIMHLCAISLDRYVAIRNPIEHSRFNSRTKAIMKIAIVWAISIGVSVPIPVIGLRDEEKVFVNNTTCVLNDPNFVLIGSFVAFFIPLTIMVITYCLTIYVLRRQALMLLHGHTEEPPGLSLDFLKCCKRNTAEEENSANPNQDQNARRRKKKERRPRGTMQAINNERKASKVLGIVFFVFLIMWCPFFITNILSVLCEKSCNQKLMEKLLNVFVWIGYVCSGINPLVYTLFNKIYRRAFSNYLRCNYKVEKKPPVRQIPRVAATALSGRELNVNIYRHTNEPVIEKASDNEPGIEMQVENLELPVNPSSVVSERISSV

Mu-type opioid receptor = Mu-type opioid receptor (Homo sapiens, UniProt P35372)
Adenosine receptor A2a = Adenosine receptor A2a (Homo sapiens, UniProt P29274)
[7] = biological target: Beta-2 adrenergic receptor (Homo sapiens, UniProt P07550); assay type: functional, cell-based
[8] = biological target: T4, Gastrin/cholecystokinin type B receptor (Homo sapiens, UniProt P32239)
T4 sequence (P32239 whole entry): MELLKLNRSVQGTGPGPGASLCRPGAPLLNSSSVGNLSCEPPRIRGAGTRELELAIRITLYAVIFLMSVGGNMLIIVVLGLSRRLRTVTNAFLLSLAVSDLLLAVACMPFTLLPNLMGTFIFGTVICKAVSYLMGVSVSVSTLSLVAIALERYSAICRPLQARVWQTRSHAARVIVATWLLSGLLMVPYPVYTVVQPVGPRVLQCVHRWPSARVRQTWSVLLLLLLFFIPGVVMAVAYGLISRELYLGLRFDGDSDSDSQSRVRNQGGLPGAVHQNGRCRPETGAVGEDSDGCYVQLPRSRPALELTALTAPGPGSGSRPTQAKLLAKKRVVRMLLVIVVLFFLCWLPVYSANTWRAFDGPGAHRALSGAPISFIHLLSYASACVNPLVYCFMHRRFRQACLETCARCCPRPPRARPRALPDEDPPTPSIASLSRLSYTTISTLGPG

[9] = biological target: T2, Alpha-1A adrenergic receptor; assay type: functional, cell-based; remark: listed apart in the source
[10] = biological target: Gamma-aminobutyric acid receptor subunit alpha-1 (Rattus norvegicus, UniProt P62813)
Thromboxane A2 receptor = biological target: T5, Thromboxane A2 receptor (Homo sapiens, UniProt P21731)
T5 sequence (P21731 whole entry): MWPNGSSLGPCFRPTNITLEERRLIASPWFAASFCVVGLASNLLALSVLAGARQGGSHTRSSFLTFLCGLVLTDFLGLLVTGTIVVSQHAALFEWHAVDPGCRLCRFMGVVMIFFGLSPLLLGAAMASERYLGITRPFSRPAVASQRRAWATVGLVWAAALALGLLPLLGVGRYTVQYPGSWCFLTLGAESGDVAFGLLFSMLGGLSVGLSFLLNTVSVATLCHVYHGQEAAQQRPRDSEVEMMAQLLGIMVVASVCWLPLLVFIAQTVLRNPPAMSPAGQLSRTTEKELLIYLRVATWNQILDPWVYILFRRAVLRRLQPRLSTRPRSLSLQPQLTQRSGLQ

[11] = biological target: Delta-type opioid receptor (Homo sapiens, UniProt P41143)
[12] = biological target: T2, Alpha-1A adrenergic receptor; assay type: functional, cell-based; remark: listed apart in the source
Further: assay procedure not described here.

Chain of D(1A) dopamine receptor (P21728 whole entry): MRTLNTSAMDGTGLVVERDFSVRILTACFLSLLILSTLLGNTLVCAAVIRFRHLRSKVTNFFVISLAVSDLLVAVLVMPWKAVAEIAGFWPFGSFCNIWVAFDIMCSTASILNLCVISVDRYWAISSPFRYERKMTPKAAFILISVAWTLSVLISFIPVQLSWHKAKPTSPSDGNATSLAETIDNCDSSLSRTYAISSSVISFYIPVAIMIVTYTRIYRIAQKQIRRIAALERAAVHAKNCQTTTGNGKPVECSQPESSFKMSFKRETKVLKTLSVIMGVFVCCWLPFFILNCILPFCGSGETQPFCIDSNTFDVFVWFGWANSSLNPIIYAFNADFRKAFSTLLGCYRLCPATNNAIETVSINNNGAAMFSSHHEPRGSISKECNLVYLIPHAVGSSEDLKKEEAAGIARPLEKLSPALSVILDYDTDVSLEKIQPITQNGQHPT
Chain of Mu-type opioid receptor (P35372 whole entry): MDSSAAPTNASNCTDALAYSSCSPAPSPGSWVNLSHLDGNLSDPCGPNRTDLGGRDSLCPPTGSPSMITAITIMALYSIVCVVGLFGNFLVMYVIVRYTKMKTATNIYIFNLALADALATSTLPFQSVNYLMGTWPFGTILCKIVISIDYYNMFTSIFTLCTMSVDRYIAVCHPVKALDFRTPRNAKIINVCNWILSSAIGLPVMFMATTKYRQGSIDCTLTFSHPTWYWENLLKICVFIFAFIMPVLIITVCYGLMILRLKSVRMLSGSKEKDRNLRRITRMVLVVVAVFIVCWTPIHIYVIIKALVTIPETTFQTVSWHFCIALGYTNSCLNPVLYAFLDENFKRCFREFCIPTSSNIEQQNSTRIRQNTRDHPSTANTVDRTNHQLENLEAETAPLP
Chain of Adenosine receptor A2a (P29274 whole entry): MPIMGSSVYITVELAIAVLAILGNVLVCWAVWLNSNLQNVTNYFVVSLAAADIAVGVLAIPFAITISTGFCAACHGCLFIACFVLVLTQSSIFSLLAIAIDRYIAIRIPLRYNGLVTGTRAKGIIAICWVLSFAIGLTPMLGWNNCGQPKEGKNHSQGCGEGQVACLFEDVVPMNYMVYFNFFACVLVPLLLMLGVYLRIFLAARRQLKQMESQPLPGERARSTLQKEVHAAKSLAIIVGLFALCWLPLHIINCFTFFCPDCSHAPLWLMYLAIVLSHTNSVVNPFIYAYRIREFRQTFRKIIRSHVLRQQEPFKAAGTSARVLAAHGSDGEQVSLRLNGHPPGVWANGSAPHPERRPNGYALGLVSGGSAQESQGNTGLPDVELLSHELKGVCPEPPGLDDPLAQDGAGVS
Chain of Sodium-dependent dopamine transporter (Q01959 whole entry): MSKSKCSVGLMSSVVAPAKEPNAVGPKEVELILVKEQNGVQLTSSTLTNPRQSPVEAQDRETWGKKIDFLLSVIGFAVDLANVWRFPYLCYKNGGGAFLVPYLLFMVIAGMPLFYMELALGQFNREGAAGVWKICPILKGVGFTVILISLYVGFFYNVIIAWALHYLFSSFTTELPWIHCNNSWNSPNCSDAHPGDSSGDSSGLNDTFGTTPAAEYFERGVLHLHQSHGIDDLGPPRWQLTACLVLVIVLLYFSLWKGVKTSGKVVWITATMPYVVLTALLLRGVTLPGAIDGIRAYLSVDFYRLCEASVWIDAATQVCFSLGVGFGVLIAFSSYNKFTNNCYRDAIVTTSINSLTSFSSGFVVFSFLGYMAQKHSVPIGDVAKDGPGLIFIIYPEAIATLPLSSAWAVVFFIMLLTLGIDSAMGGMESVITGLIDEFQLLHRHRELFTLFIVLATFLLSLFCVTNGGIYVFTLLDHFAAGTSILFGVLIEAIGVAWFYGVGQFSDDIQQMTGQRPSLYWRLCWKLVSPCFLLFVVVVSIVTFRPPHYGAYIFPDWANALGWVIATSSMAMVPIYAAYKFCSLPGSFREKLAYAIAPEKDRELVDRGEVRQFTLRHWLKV
Chain of Beta-2 adrenergic receptor (P07550 whole entry): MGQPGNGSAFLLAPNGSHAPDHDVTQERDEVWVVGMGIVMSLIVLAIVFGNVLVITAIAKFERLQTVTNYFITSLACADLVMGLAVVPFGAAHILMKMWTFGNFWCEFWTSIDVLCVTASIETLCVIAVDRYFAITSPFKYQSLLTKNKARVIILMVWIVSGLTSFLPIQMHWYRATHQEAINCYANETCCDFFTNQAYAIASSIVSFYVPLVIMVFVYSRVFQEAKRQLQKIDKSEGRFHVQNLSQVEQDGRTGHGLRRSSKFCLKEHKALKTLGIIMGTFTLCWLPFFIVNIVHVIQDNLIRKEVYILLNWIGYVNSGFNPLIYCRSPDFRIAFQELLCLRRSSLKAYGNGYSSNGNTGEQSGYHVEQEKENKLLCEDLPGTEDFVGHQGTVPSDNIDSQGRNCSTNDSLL
Chain of 5-hydroxytryptamine receptor 2B (P41595 whole entry): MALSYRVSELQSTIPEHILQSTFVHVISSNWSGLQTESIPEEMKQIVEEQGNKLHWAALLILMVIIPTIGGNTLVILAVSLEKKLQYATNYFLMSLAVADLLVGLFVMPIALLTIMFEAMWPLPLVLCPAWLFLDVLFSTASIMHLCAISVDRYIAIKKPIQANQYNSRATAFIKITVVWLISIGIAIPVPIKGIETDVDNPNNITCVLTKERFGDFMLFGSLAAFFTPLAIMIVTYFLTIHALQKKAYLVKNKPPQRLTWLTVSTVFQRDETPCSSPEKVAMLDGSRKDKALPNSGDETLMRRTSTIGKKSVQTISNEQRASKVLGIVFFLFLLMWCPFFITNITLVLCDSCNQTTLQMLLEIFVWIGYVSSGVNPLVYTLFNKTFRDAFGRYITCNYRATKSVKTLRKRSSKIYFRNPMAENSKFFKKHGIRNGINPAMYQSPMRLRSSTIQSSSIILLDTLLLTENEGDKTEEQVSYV
Chain of Gamma-aminobutyric acid receptor subunit alpha-1 (P62813 whole entry): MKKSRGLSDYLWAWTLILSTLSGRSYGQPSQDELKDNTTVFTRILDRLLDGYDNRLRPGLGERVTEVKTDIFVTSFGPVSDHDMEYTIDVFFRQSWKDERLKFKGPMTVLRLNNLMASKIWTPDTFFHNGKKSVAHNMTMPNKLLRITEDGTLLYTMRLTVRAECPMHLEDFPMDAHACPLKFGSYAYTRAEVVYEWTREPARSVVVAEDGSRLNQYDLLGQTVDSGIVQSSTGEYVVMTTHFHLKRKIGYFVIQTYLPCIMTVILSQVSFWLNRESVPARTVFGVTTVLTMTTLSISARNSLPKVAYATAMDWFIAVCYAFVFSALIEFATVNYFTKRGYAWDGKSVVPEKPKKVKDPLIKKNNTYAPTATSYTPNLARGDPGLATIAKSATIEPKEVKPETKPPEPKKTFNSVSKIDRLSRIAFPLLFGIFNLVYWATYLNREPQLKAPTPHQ
Chain of Histamine H2 receptor (P25021 whole entry): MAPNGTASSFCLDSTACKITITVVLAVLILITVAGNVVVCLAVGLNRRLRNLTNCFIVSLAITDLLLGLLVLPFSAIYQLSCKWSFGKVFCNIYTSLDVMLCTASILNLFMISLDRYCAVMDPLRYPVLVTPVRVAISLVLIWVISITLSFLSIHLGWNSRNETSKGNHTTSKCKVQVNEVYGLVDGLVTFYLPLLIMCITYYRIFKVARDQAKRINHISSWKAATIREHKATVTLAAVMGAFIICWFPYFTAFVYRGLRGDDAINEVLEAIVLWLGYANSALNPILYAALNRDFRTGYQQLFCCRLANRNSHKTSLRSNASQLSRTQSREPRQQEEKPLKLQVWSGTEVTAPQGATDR
Chain of Delta-type opioid receptor (P41143 whole entry): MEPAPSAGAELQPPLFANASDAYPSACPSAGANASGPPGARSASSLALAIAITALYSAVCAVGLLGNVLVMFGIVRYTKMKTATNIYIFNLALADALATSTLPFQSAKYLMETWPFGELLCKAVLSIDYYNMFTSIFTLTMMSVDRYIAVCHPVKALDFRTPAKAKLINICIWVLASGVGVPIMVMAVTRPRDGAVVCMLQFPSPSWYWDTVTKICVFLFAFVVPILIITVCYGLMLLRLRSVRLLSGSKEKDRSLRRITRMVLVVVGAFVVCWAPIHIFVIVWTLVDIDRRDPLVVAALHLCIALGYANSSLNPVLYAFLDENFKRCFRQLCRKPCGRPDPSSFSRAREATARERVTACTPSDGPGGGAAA

Compound	AC50 [1]	AC50 (D(1A) dopamine receptor)	AC50 [2]	AC50 (Histamine H2 receptor)	AC50 [3]	AC50 [4]	AC50 [5]	AC50 [6]	AC50 (Mu-type opioid receptor)	AC50 (Adenosine receptor A2a)	AC50 [7]	AC50 [8]	AC50 [9]	AC50 [10]	AC50 (Thromboxane A2 receptor)	AC50 [11]	AC50 [12]
CCCc1nc2c(C)cc(-c3nc4ccccc4n3C)cc2n1Cc1ccc(-c2ccccc2C(=O)O)cc1	> 30 µM	> 30 µM	> 30 µM	> 10 µM	> 30 µM	> 30 µM	6.33 µM	> 30 µM	10.8 µM	> 30 µM	> 30 µM	> 30 µM	3 µM	> 30 µM	18.1 µM	–	–
CCCNC(=O)NS(=O)(=O)c1ccc(Cl)cc1 [CHLORPROPAMIDE]	> 30 µM	> 10 µM	> 10 µM	> 10 µM	> 10 µM	> 30 µM	> 10 µM	> 30 µM	> 30 µM	> 30 µM	> 30 µM	> 30 µM	> 30 µM	> 10 µM	> 30 µM	> 30 µM	–
O=C(O)Cc1ccccc1Nc1c(Cl)cccc1Cl [DICLOFENAC]	> 30 µM	> 10 µM	> 10 µM	> 10 µM	> 10 µM	> 30 µM	> 10 µM	> 10 µM	> 30 µM	> 30 µM	> 30 µM	> 30 µM	> 30 µM	> 10 µM	> 30 µM	> 30 µM	> 3 µM
O=C(O)Cc1ccccc1Oc1ccc(Cl)cc1Cl [FENCLOFENAC]	> 10 µM	> 30 µM	> 10 µM	> 10 µM	> 10 µM	> 30 µM	> 10 µM	> 30 µM	> 30 µM	> 30 µM	> 30 µM	> 30 µM	> 30 µM	> 10 µM	> 30 µM	> 30 µM	> 30 µM
Cc1ccc(C)c(OCCCC(C)(C)C(=O)O)c1 [GEMFIBROZIL]	> 10 µM	> 10 µM	> 10 µM	> 10 µM	> 10 µM	> 30 µM	4.4 µM	> 30 µM	> 30 µM	> 30 µM	> 30 µM	> 30 µM	> 30 µM	> 10 µM	> 30 µM	> 30 µM	> 30 µM
COc1cc(C(C)=O)ccc1OCCCN1CCC(c2noc3cc(F)ccc23)CC1 [ILOPERIDONE]	5.95 µM	> 30 µM	> 30 µM	–	–	> 30 µM	1.8 µM	0.803 µM	10 µM	> 30 µM	> 30 µM	9.33 µM	0.0092 µM	–	–	> 30 µM	0.003 µM
CC(C)[C@H](N)C(=O)OCCOCn1cnc2c(=O)[nH]c(N)nc21 [VALACYCLOVIR]	> 10 µM	> 10 µM	> 10 µM	> 10 µM	> 10 µM	> 30 µM	> 10 µM	> 30 µM	> 30 µM	> 30 µM	> 30 µM	> 30 µM	> 30 µM	> 10 µM	> 30 µM	> 30 µM	–
O=C1Cc2cc(CCN3CCN(c4nsc5ccccc45)CC3)c(Cl)cc2N1 [ZIPRASIDONE]	5.11 µM	–	0.95 µM	> 10 µM	> 10 µM	> 30 µM	0.229 µM	–	> 30 µM	> 30 µM	> 30 µM	> 30 µM	0.684 µM	> 10 µM	> 30 µM	> 30 µM	0.0179 µM
